How the values were obtained:
[1] = Cytotoxicity against human HEp2 cells; type: cell-based, HEp-2
[2] = test system: Respiratory syncytial virus; assay: Antiviral activity against RSV long A with F1 protein K394R mutation in HEp2 cells; type: functional, organism-based
[3] = Therapeutic index, ratio of CC50 for HEp2 to EC50 for RSV long A; details: human, HEp2 cells; read-out: Ratio CC50/EC50

SMILES	CC50 [1] [µM]	EC50 [2] [µM]	selectivity ratio [3]
CC(C)CCn1c(Cn2c(=O)n(C(C)C)c3ccccc32)nc2ccc(CN(C)C)cc21	26.7	182	0.026
CC(C)CCn1c(Cn2c(=O)n(C(C)C)c3ccccc32)nc2c(CO)cccc21	22	0.82	26.8
C=C(C)n1c(=O)n(Cc2nc3ccccc3n2CCC(C)C)c2ccccc21	24.6	0.004	6160
CC(C)CCn1c(Cn2c(=O)n(C(C)C)c3ccccc32)nc2cc(Br)ccc21	18.1	0.018	1010
CC(C)CCn1c(Cn2c(=O)n(C(C)C)c3ccccc32)nc2cc(C(=O)N(C)C)ccc21	25.6	24.8	1.03
CC(=O)c1ccc2c(c1)nc(Cn1c(=O)n(C)c3ccccc31)n2CCC(C)C	5.2	0.193	39.8
CC(C)CCn1c(Cn2c(=O)n(C(C)C)c3ccccc32)nc2ccc(CO)cc21	81.6	0.134	609
CC(C)CCn1c(Cn2c(=O)n(C(C)C)c3ccccc32)nc2c(CCC#N)cccc21	2.24	234	0.096
CC(C)CCn1c(Cn2c(=O)n(C(C)C)c3ccccc32)nc2cc(CO)ccc21	31.6	0.05	632
CC(C)CCn1c(Cn2c(=O)n(CC(=O)OC(C)(C)C)c3ccccc32)nc2cc(C(=N)N)ccc21	7.9	0.009	878
CC(C)CCn1c(Cn2c(=O)n(C(C)C)c3ccccc32)nc2c(CCCN)cccc21	2.34	213	0.011
N=C(N)c1ccc2nc(Cc3nc4ccc(C(=N)N)cc4[nH]3)[nH]c2c1		100	
CC(C)CCn1c(Cn2c(=O)n(C(C)C)c3ccccc32)nc2ccc(C(=O)O)cc21	125	238	0.525
CC(C)CCn1c(Cn2c(=O)n(C(C)C)c3ccccc32)nc2cccc(N=[N+]=[N-])c21	57.9	3.7	15.6
CC(C)CCn1c(Cn2c(=O)n(C(C)C)c3ccccc32)nc2cc(CCN)ccc21	11	4.33	2.54
COC(=O)c1cccc2c1nc(Cn1c(=O)n(C(C)C)c3ccccc31)n2CCC(C)C	49.2	230	0.213
C=C(C)n1c(=O)n(Cc2nc3cc(C(=N)N)ccc3n2CCC(C)C)c2ccccc21	10.8	0.004	2700
CC(C)CCn1c(Cn2c(=O)n(C(C)C)c3ccccc32)nc2cc(C(N)=O)ccc21	23.4	0.166	141
CC(C)CCn1c(Cn2c(=O)n(C(C)C)c3ccccc32)nc2cc(CN)ccc21	3.92	0.002	1960

SMILES	CC50 [1] [µM]	EC50 [2] [µM]	selectivity ratio [3]
O=c1n(Cc2nc3ccccc3n2CCCCO)c2cnccc2n1C1CC1		> 20	
CC(C)CCn1c(Cn2c(=O)n(C(C)C)c3ccccc32)nc2cccc(CN)c21	11	192	0.058
CC(C)CCn1c(Cn2c(=O)n(C(C)C)c3ccccc32)nc2cc(CN(C)C)ccc21	5.65	183	0.031
CNCc1ccc2nc(Cn3c(=O)n(C(C)C)c4ccccc43)n(CCC(C)C)c2c1	4.81	187	0.026
CC(C)CCn1c(Cn2c(=O)n(C(C)C)c3ccccc32)nc2cc(N)ccc21	32.2	0.125	258
C=C(C)n1c(=O)n(Cc2nc3cc(C(=O)O)ccc3n2CCC(C)C)c2ccccc21	30	264	0.11
CC(C)CCn1c(Cn2c(=O)n(C(C)C)c3ccccc32)nc2cc(-c3nn[nH]n3)ccc21	2	225	0.009
CC(C)CCn1c(Cn2c(=O)n(C(C)C)c3ccccc32)nc2cc(CNC3CC3)ccc21	17.2	0.363	47.3
COCc1cccc2c1nc(Cn1c(=O)n(C(C)C)c3ccccc31)n2CCC(C)C	26.7	7.5	3.56
C=Cc1ccc2c(c1)nc(Cn1c(=O)n(C(C)C)c3ccccc31)n2CCC(C)C	6.52	0.63	10.3
CC(C)CCn1c(Cn2c(=O)n(CC(=O)OC(C)(C)C)c3ccccc32)nc2cc(C#N)ccc21	32.2	2.55	12.6
CC(C)CCn1c(Cn2c(=O)n(C(C)C)c3ccccc32)nc2ccc(CN)cc21	28.1	0.095	296
CC(C)CCn1c(Cn2c(=O)n(C(C)C)c3ccccc32)nc2cc(C(C)(C)N)ccc21	3.27	0.694	4.71
C=C(C)n1c(=O)n(Cc2nc3cc(C#N)ccc3n2CCC(C)C)c2ccccc21	1.48	0.057	26
CC(C)CCn1c(Cn2c(=O)n(C(C)C)c3ccccc32)nc2ccc(C#N)cc21	10	0.044	228
COC(=O)c1cccc2nc(Cn3c(=O)n(C(C)C)c4ccccc43)n(CCC(C)C)c12	25.3	230	0.11
COC(=O)c1ccc2c(c1)nc(Cn1c(=O)n(C(C)C)c3ccccc31)n2CCC(C)C	33.7	230	0.15
CC(C)CCn1c(Cn2c(=O)n(CC(=O)O)c3ccccc32)nc2cc(C(=N)N)ccc21	173	0.031	5570
CC(C)CCn1c(Cn2c(=O)n(C(C)C)c3ccccc32)nc2ccc(CCN)cc21	57	7.11	8.02

SMILES	CC50 [1] [µM]	EC50 [2] [µM]	selectivity ratio [3]
CC(C)CCn1c(Cn2c(=O)n(CC(=O)OC(C)(C)C)c3ccccc32)nc2cc(/C(N)=N\O)ccc21	19.8	0.016	1240
C=C(C)n1c(=O)n(Cc2nc3cc(/C(N)=N\O)ccc3n2CCC(C)C)c2ccccc21	3.47	0.005	694
CC(C)CCn1c(Cn2c(=O)n(C(C)C)c3ccccc32)nc2cc(CNS(C)(=O)=O)ccc21	30.8	0.725	42.4
CCc1ccc2c(c1)nc(Cn1c(=O)n(C(C)C)c3ccccc31)n2CCC(C)C	18.5	0.692	26.8
CNCc1ccc2c(c1)nc(Cn1c(=O)n(C(C)C)c3ccccc31)n2CCC(C)C	1.48	0.057	26
CC(C)CCn1c(Cn2c(=O)n(C(C)C)c3ccccc32)nc2c(CCN)cccc21	3.92	0.23	17
CC(C)CCn1c(Cn2c(=O)n(C)c3ccccc32)nc2cc(-c3nnn(C)n3)ccc21	2.97	239	0.012
CC(C)CCn1c(Cn2c(=O)n(C(C)C)c3ccccc32)nc2ccc(C(N)=O)cc21	49.9	123	0.406
CC(C)CCn1c(Cn2c(=O)n(C(C)C)c3ccccc32)nc2c(CC#N)cccc21	116	241	0.482
CC(C)CCn1c(Cn2c(=O)n(C(C)C)c3ccccc32)nc2cc(C(=O)O)ccc21	17.3	238	0.07
CC(C)CCn1c(Cn2c(=O)n(C(C)C)c3ccccc32)nc2cc(CC#N)ccc21	13.3	0.117	114
CC(=O)NCc1ccc2c(c1)nc(Cn1c(=O)n(C(C)C)c3ccccc31)n2CCC(C)C	178	0.631	282
CC(C)CCn1c(Cn2c(=O)n(C(C)C)c3ccccc32)nc2cc(CF)ccc21	37.3	0.047	793
CC(C)CCn1c(Cn2c(=O)n(C(C)C)c3ccccc32)nc2cc(/C(N)=N\O)ccc21	9.14	0.111	82.2
CC(C)CCn1c(Cn2c(=O)n(C(C)C)c3ccccc32)nc2cccc(CO)c21	246	246	1
CC(C)CCn1c(Cn2c(=O)n(C(C)C)c3ccccc32)nc2cc(C#N)ccc21	7.93	0.476	16.6
C=C(C)n1c(=O)n(Cc2nc3cc(C(C)=O)ccc3n2CCC(C)C)c2ccccc21	0.74	0.179	4.1
CC(C)CCn1c(Cn2c(=O)n(C(C)C)c3ccccc32)nc2c(CN)cccc21	7	0.715	9.78
CC(C)CCn1c(Cn2c(=O)n(C(C)C)c3ccccc32)nc2cc(-c3ncon3)ccc21	223	21.6	10.3
